The values that follow come from patent US20260001914A1, “MACROCYCLIC PEPTIDES TARGETING KRAS” (Merck Sharp & Dohme LLC, priority 2022, published 2026).

Molecules are shown by their SMILES. *1 amine or outer side, *2 acyl side, *3 side chain or, on linkers, in order; H or OH if unused. Where a SMILES comes first, the peptide text is derived from it. [ ]: non-standard residue; d: D form. Ala(pyrimidin-5-yl) = N[C@@H](Cc1cncnc1)C(=O)O; X7 = C[C@H](N[*:1])C12CC(C(=O)[*:2])(C1)C2; X80 = Nc1nccn1CCC[C@H](N[*:1])C(=O)[*:2]; X46 = O=C([C@H](Cc1cccnc1F)N[*:1])[*:2]; Ala(cPent) = N[C@@H](CC1CCCC1)C(=O)O; Phe(2-F) = N[C@@H](Cc1ccccc1F)C(=O)O; X31 = O=C([C@H](CCC1CC1)N[*:1])[*:2]; NMe3Pal = CN[C@@H](Cc1cccnc1)C(=O)O; X1 = O=C(C12CC(CN[*:1])(C1)C2)[*:2]; X56 = O=C(C12CC(N[*:1])(C1)C2)[*:2]; X17 = O=C([C@H](CCCCF)N[*:1])[*:2]; Aha = [N-]=[N+]=NCC[C@H](N)C(=O)O; NMeR = CN[C@@H](CCCNC(=N)N)C(=O)O; Ala(cPr) = N[C@@H](CC1CC1)C(=O)O; NMeF = CN[C@@H](Cc1ccccc1)C(=O)O; PhLac = O=C(O)[C@@H](O)Cc1ccccc1; X4 = O=C([C@H](CCCF)N[*:1])[*:2]; 3Pal = N[C@@H](Cc1cccnc1)C(=O)O; d3Pal = N[C@H](Cc1cccnc1)C(=O)O; Cba = N[C@@H](CC1CCC1)C(=O)O; NMeNle = CCCC[C@H](NC)C(=O)O; hLeu = CC(C)CC[C@H](N)C(=O)O; NMeS = CN[C@@H](CO)C(=O)O; NMeA = CN[C@@H](C)C(=O)O; Nle = CCCC[C@H](N)C(=O)O; Nva = CCC[C@H](N)C(=O)O

In the test the target is KRAS-G12D protein (Homo sapiens, UniProt P01116, G12D). Description: SOS-mediated nucleotide exchange assay (BODIPY-GDP / Tb-streptavidin TR-FRET). Type of test: biochemical. (In general: Time-resolved FRET reads energy transfer from a long-lived donor to a nearby acceptor.)
Sequence of KRAS-G12D protein (P01116 1-188 isoform P01116-2 G12D): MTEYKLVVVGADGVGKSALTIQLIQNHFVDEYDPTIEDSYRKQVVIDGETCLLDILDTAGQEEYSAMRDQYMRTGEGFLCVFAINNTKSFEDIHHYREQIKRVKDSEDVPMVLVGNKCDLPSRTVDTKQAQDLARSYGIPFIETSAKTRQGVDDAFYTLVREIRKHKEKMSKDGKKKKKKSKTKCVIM
In general, EC50 refers to the midpoint of the concentration-response curve. A high value points to a need for much substance. As for `CCCC[C@@H]1NC(=O)[C@H](Cc2ccccc2F)NC(=O)[C@H](CC2CCC2)NC(=O)[C@@H](Cc2cccnc2)NC(=O)[C@H](CCCNC(=N)N)NC(=O)[C@H](Cc2ccccc2)NC(=O)C23CC(C2)(C3)NC(=O)[C@H](Cc2cccnc2)N(C)C1=O` [compound 108, cyclo(F-R-d3Pal-cBuA-Phe2F-Nle-NMe3Pal-BCP)] (cyclo(FR[d3Pal][Cba][Phe(2-F)][Nle][NMe3Pal][X56])), the EC50 worked out at 1140 nM.

`CCCC[C@@H]1NC(=O)[C@H](Cc2ccccc2F)NC(=O)[C@H](CCCC)N(C)C(=O)[C@@H](Cc2cccnc2)NC(=O)[C@H](CCCNC(=N)N)N(C)C(=O)[C@H](Cc2ccccc2)NC(=O)C23CC(CNC(=O)[C@H](Cc4cccnc4)N(C)C1=O)(C2)C3` [compound 109, cyclo(F-NMeR-d3Pal-NMeNle-Phe2F-Nle-NMe3Pal-amBCP)] (cyclo(F[NMeR][d3Pal][NMeNle][Phe(2-F)][Nle][NMe3Pal][X1])) yielded an EC50 of 1200 nM.

Consider `CCCC[C@@H]1NC(=O)[C@H](Cc2ccccc2F)NC(=O)[C@H](CC2CCC2)NC(=O)[C@@H](Cc2cccnc2)NC(=O)[C@H](CCCn2ccnc2N)NC(=O)[C@H](Cc2ccccc2)NC(=O)C23CC(CNC(=O)[C@H](Cc4cccnc4)N(C)C1=O)(C2)C3` [compound 110, cyclo(F-NH2IMNva-d3Pal-cBuA-Phe2F-Nle-NMe3Pal-amBCP)] (cyclo(F[X80][d3Pal][Cba][Phe(2-F)][Nle][NMe3Pal][X1])), for which a half-maximal response (EC50) required 1.14 nM.

On to `CCCC[C@@H]1NC(=O)[C@H](C(C)C)NC(=O)[C@H](CC2CCC2)NC(=O)[C@H](Cc2cccnc2)NC(=O)[C@H](CCN=[N+]=[N-])NC(=O)[C@H](Cc2ccccc2)NC(=O)C23CC(CNC(=O)[C@H](Cc4cccnc4)N(C)C1=O)(C2)C3` [compound 113, cyclo(F-DabN3~3Pal-cBuA-V-Nle-NMe3Pal-amBCP)] (cyclo(F[Aha][3Pal][Cba]V[Nle][NMe3Pal][X1])), for which a half-maximal effect (EC50) was put at 6560 nM.

Molecule `C[C@H]1C(=O)N[C@@H](Cc2cncnc2)C(=O)N[C@@H](CC2CC2)C(=O)N[C@@H](Cc2ccccc2F)C(=O)N[C@@H](CCC2CC2)C(=O)N(C)[C@@H](Cc2ccccc2)C(=O)NCC23CC(C2)(C3)C(=O)O[C@@H](Cc2ccccc2)C(=O)N1C` [compound 114, cyclo(FLac-NMeA-PyrimAla-cPrA-Phe2F-hcPrA-NMeF-amBCP)] (cyclo([Ala(cPr)][Phe(2-F)][X31][NMeF][X1][PhLac][NMeA][Ala(pyrimidin-5-yl)])) had an EC50 of 2 nM.

`C[C@H]1C(=O)N[C@@H](Cc2cncnc2)C(=O)N[C@@H](CC2CCC2)C(=O)N[C@@H](Cc2ccccc2F)C(=O)N[C@@H](CCC2CC2)C(=O)N(C)[C@@H](Cc2ccccc2)C(=O)NCC23CC(C2)(C3)C(=O)O[C@@H](Cc2ccccc2)C(=O)N1C` [compound 115, cyclo(FLac-NMeA-PyrimAla-cBuA-Phe2F-hcPrA-NMeF-amBCP)] (cyclo([Cba][Phe(2-F)][X31][NMeF][X1][PhLac][NMeA][Ala(pyrimidin-5-yl)])) showed an EC50 of 4 nM.

For the molecule `CCCC[C@@H]1NC(=O)[C@H](Cc2cccnc2)NC(=O)[C@H](C)N(C)C(=O)[C@H](Cc2ccccc2)OC(=O)C23CC(CNC(=O)[C@H](Cc4cccnc4)N(C)C(=O)[C@H](CCC)NC(=O)[C@H](Cc4ccccc4F)NC1=O)(C2)C3` [compound 116, cyclo(FLac-NMeA-3Pal-Nle-Phe2F-Nva-NMe3Pal-amBCP)] (cyclo([3Pal][Nle][Phe(2-F)][Nva][NMe3Pal][X1][PhLac][NMeA])), the 50% effective concentration (EC50) came out at 154 nM.

Turning to `CCCC[C@@H]1NC(=O)[C@H](Cc2cccnc2F)NC(=O)[C@H](C)N(C)C(=O)[C@H](Cc2ccccc2)OC(=O)C23CC(CNC(=O)[C@H](Cc4cccnc4)N(C)C(=O)[C@H](CCCC)NC(=O)[C@H](Cc4ccccc4F)NC1=O)(C2)C3` [compound 117, cyclo(FLac-NMeA~3Pal2F-Nle-Phe2F-Nle-NMe3Pal-amBCP)] (cyclo([NMe3Pal][X1][PhLac][NMeA][X46][Nle][Phe(2-F)][Nle])), the midpoint of the response, the EC50, lay at 1450 nM.

In turn, `CCCC[C@@H]1NC(=O)[C@H](Cc2cccnc2)NC(=O)[C@H](CO)N(C)C(=O)[C@H](Cc2ccccc2)OC(=O)C23CC(CNC(=O)[C@H](Cc4cccnc4)N(C)C(=O)[C@H](CCCC)NC(=O)[C@H](Cc4ccccc4F)NC1=O)(C2)C3` [compound 118, cyclo(FLac-NMeS-3Pal-Nle-Phe2F-Nle-NMe3Pal-amBCP)] (cyclo([3Pal][Nle][Phe(2-F)][Nle][NMe3Pal][X1][PhLac][NMeS])) yielded an EC50 of 466 nM.

The molecule `CCCC[C@@H]1NC(=O)[C@H](Cc2cncnc2)NC(=O)[C@H](CO)N(C)C(=O)[C@H](Cc2ccccc2)OC(=O)C23CC(CNC(=O)[C@H](Cc4cccnc4)N(C)C(=O)[C@H](CCCC)NC(=O)[C@H](Cc4ccccc4F)NC1=O)(C2)C3` [compound 119, cyclo(FLac-NMeS-PyrimAla-Nle-Phe2F-Nle-NMe3Pal-amBCP)] (cyclo([NMe3Pal][X1][PhLac][NMeS][Ala(pyrimidin-5-yl)][Nle][Phe(2-F)][Nle])) gave an EC50 of 375 nM.

As for `CCCC[C@@H]1NC(=O)[C@H](Cc2ccccc2F)NC(=O)[C@H](CCCF)NC(=O)[C@H](Cc2cccnc2)NC(=O)[C@H](C)N(C)C(=O)[C@H](Cc2ccccc2)OC(=O)C23CC(CNC(=O)[C@H](Cc4cccnc4)N(C)C1=O)(C2)C3` [compound 120, cyclo(FLac-NMeA-3Pal-NvaF-Phe2F-Nle-NMe3Pal-amBCP)] (cyclo([3Pal][X4][Phe(2-F)][Nle][NMe3Pal][X1][PhLac][NMeA])), the EC50 was found to be 35.1 nM.

Molecule `CCCC[C@@H]1NC(=O)[C@H](Cc2cncnc2)NC(=O)[C@H](C)N(C)C(=O)[C@H](Cc2ccccc2)OC(=O)C23CC(C2)(C3)[C@H](C)NC(=O)[C@H](Cc2cccnc2)N(C)C(=O)[C@H](CCCC)NC(=O)[C@H](Cc2ccccc2F)NC1=O` [compound 121, cyclo(FLac-NMeA-PyrimAla-Nle-Phe2F-Nle-NMe3Pal-SMeamBCP)] (cyclo([NMe3Pal][X7][PhLac][NMeA][Ala(pyrimidin-5-yl)][Nle][Phe(2-F)][Nle])) showed an EC50 of 33.5 nM.

`CCCC[C@@H]1NC(=O)[C@H](Cc2cccnc2)NC(=O)[C@H](C)N(C)C(=O)[C@H](Cc2ccccc2)OC(=O)C23CC(CNC(=O)[C@H](Cc4cccnc4)N(C)C(=O)[C@H](CCC(C)C)NC(=O)[C@H](Cc4ccccc4F)NC1=O)(C2)C3` [compound 124, cyclo(FLac-NMeA-3Pal-Nle-Phe2F-hL-NMe3Pal-amBCP)] (cyclo([3Pal][Nle][Phe(2-F)][hLeu][NMe3Pal][X1][PhLac][NMeA])) came in with an EC50 of 2.17 nM.

Regarding `CCCC[C@@H]1NC(=O)[C@H](Cc2ccccc2F)NC(=O)[C@H](CC2CCCC2)NC(=O)[C@H](Cc2cncnc2)NC(=O)[C@H](C)N(C)C(=O)[C@H](Cc2ccccc2)OC(=O)C23CC(CNC(=O)[C@H](Cc4cccnc4)N(C)C1=O)(C2)C3` [compound 126, cyclo(FLac-NMeA-PyrimAla-cPeA-Phe2F-Nle-NMe3Pal-amBCP)] (cyclo([Ala(cPent)][Phe(2-F)][Nle][NMe3Pal][X1][PhLac][NMeA][Ala(pyrimidin-5-yl)])), the EC50 came out at 22.3 nM.

Take `CCCC[C@@H]1NC(=O)[C@H](Cc2ccccc2F)NC(=O)[C@H](CCC(C)C)NC(=O)[C@H](Cc2cncnc2)NC(=O)[C@H](C)N(C)C(=O)[C@H](Cc2ccccc2)OC(=O)C23CC(CNC(=O)[C@H](Cc4cccnc4)N(C)C1=O)(C2)C3` [compound 127, cyclo(FLac-NMeA-PyrimAla-hL-Phe2F-Nle-NMe3Pal-amBCP)] (cyclo([NMe3Pal][X1][PhLac][NMeA][Ala(pyrimidin-5-yl)][hLeu][Phe(2-F)][Nle])): the EC50 was determined as 228 nM.

For `C[C@H]1C(=O)N[C@@H](Cc2cncnc2)C(=O)N[C@@H](CCCCF)C(=O)N[C@@H](Cc2ccccc2F)C(=O)N[C@@H](CCCCF)C(=O)N(C)[C@@H](Cc2ccccc2)C(=O)NCC23CC(C2)(C3)C(=O)O[C@@H](Cc2ccccc2)C(=O)N1C` [compound 128, cyclo(FLac-NMeA-PyrimAla-NleF-Phe2F-NleF-NMeF-amBCP)] (cyclo([NMeA][Ala(pyrimidin-5-yl)][X17][Phe(2-F)][X17][NMeF][X1][PhLac])), the response was half-maximal at 37.4 nM (EC50).

Consider `CCCC[C@@H]1NC(=O)[C@H](Cc2ccccc2F)NC(=O)[C@H](CC(C)C)NC(=O)[C@H](Cc2cncnc2)NC(=O)[C@H](C)N(C)C(=O)[C@H](Cc2ccccc2)OC(=O)C23CC(CNC(=O)[C@H](Cc4cccnc4)N(C)C1=O)(C2)C3` [compound 129, cyclo(FLac-NMeA-PyrimAla-L-Phe2F-Nle-NMe3Pal-amBCP)] (cyclo([PhLac][NMeA][Ala(pyrimidin-5-yl)]L[Phe(2-F)][Nle][NMe3Pal][X1])), for which the EC50 stood at 4.38 nM.

As to `CCCC[C@@H]1NC(=O)[C@H](Cc2ccccc2F)NC(=O)[C@H](CCCCF)NC(=O)[C@H](Cc2cncnc2)NC(=O)[C@H](C)N(C)C(=O)[C@H](Cc2ccccc2)OC(=O)C23CC(CNC(=O)[C@H](Cc4ccccc4)N(C)C1=O)(C2)C3` [compound 130, cyclo(FLac-NMeA-PyrimAla-NleF-Phe2F-Nle-NMeF-amBCP)] (cyclo([NMeA][Ala(pyrimidin-5-yl)][X17][Phe(2-F)][Nle][NMeF][X1][PhLac])), a half-maximal effect (EC50) was put at 2.43 nM.

On to `CCCC[C@@H]1NC(=O)[C@H](Cc2cncnc2)NC(=O)[C@H](C)N(C)C(=O)[C@H](Cc2ccccc2)OC(=O)C23CC(CNC(=O)[C@H](Cc4ccccc4)N(C)C(=O)[C@H](CCCCF)NC(=O)[C@H](Cc4ccccc4F)NC1=O)(C2)C3` [compound 131, cyclo(FLac-NMeA-PyrimAla-Nle-Phe2F-NleF-NMeF-amBCP)] (cyclo([NMeA][Ala(pyrimidin-5-yl)][Nle][Phe(2-F)][X17][NMeF][X1][PhLac])), for which the EC50 worked out at 10.1 nM.

As to `CCCC[C@@H]1NC(=O)[C@H](Cc2cncnc2)NC(=O)[C@H](C)N(C)C(=O)[C@H](Cc2ccccc2)OC(=O)C23CC(CNC(=O)[C@H](Cc4ccccc4)N(C)C(=O)[C@H](CCC(C)C)NC(=O)[C@H](Cc4ccccc4F)NC1=O)(C2)C3` [compound 132, cyclo(FLac-NMeA-PyrimAla-Nle-Phe2F-hL-NMeF-amBCP)] (cyclo([NMeA][Ala(pyrimidin-5-yl)][Nle][Phe(2-F)][hLeu][NMeF][X1][PhLac])), the response was half-maximal at 7.87 nM (EC50).
